Experimental data as given in publication PMC3049593 (British Journal of Cancer, 2011).

Assays:
[1] = test system: Lewis Lung Carcinoma (LL/2) tumour angiogenesis; test: CD31 staining of primary LL/2 tumours; type: in vivo, mice
Method: Angiogenesis in vivo was evaluated using the Angiosponge model in which subcutaneously implanted, agarose-captured FGF2 gelfoam sterile sponges (Pfizer, West Ryde, Australia) induces vascularisation over a 10-day period responsive to angiogenesis inhibition as determined by the number of vessels with identifiable lumen that stained positive for CD31/PECAM-1, an antigen present specifically on endothelial cells ([McCarty et al, 2002]). PG545 was administered s.c. on the flank distal to the AngioSponge implant. This method was also used to examine five medium-sized primary tumours from each group of Lewis Lung Carcinoma (LL/2)-bearing mice.
In the orthotopic Hep3b2.1-7 human liver cancer model, treatment of mice (n=10) began 14 days after inoculation of 2.5 × 10^6 cells. […] To initiate tumour xenografts, MDA-MB-231, PC3, Cal27 and HepG2 cells were injected s.c. into nude mice (n=8) at 4, 5, 2 and 2 × 10^7 cells ml^−1, respectively. […] In the B16F0 lung metastasis model, 2 × 10^5 cells were injected via the tail vein of C57Bl6 mice (n=8). […] Surface lung macrometastases were counted for each group (n=9) upon study termination. […] Solid tumours were measured in two dimensions (length and width) and the tumour volume (cm^3) was calculated using the equation: V=length × width^2 × π/6. The anti-tumour activity was expressed as percent tumour growth inhibition (%TGI). […]

[2] = test system: HepG2 cells; test: in vitro cytotoxicity (LC50); type: cell-based; conditions: read-out: LC50 (concentration lethal to 50% of cells)
[3] = plasma pharmacokinetics of PG545 (LC-MS/MS) in LL/2 tumour-bearing mice; type: in vivo; conditions: for AUC0−t / Cmax / Tmax / t½: plasma
Method: (Applied Biosystems) preceded by a Spark Symbiosis Direct On-line Solid Phase Extraction system. Briefly, using a deep-well 96-well plate, 100 µL plasma was mixed with 10 µL standard solution (or water for unknowns) plus 10 µL internal standard solution (PG562 at 100 µg/mL (deionised water for double blank)).This was then mixed for at least 1 min (Ratek Platform Shaker) and incubated at room temperature for 20 mins prior to addition of 25 µL SDS solution (10 mg SDS in 1 mL deionised water) + 75 µL CHAPS solution (50 mg CHAPS in 1 mL deionised water) and 50 µL Proteinase K solution (10 mg Proteinase K in 1 mL 5 mM CaCl2). Following a mixing step this was incubated at 37°C for 2.5 hours prior to addition of 250 µL deionised water and placed into the Spark Symbiosis system.
The Tmax and Cmax on each sampling day were determined for each dose level by visual inspection of the mean data. The AUC0-t was calculated using the trapezoidal method and the plasma concentration t½ was estimated based on linear regression of the natural log of the plasma concentration that constituted the terminal phase of the concentration-time

[4] = toxicity / toxicology studies; type: in vivo
[5] = test system: coagulation; parameters: method as in Dredge et al, 2010; conditions: compared with PI-88 or earlier PG500 series compounds; ref Dredge et al, 2010; cited from earlier work

CC(C)CCC[C@@H](C)[C@H]1CCC2C3CCC4C[C@@H](O[C@@H]5O[C@H](COS(=O)(=O)[O-])[C@@H](O[C@H]6O[C@H](COS(=O)(=O)[O-])[C@@H](O[C@H]7O[C@H](COS(=O)(=O)[O-])[C@@H](O[C@H]8O[C@H](COS(=O)(=O)[O-])[C@@H](OS(=O)(=O)[O-])[C@H](OS(=O)(=O)[O-])[C@H]8OS(=O)(=O)[O-])[C@H](OS(=O)(=O)[O-])[C@H]7OS(=O)(=O)[O-])[C@H](OS(=O)(=O)[O-])[C@H]6OS(=O)(=O)[O-])[C@H](OS(=O)(=O)[O-])[C@H]5OS(=O)(=O)[O-])CC[C@]4(C)C3CC[C@@]21C.[Na+].[Na+].[Na+].[Na+].[Na+].[Na+].[Na+].[Na+].[Na+].[Na+].[Na+].[Na+].[Na+] (stereo partly shown) [PG545]
decrease in CD31 endothelial staining in tumours ([1]; 20 mg kg^−1 once-weekly s.c.): 30% | decrease in CD31 endothelial staining in tumours ([1]; 40 mg kg^−1 once-weekly s.c.): 22% | CC50 [2]: > 100 µM | start of efficacious plasma concentration range ([3]; LL/2 model): ~20 µg/mL | AUC0−t ([3]; week 1, 20 mg kg^−1): 687 µg·h/mL | Cmax ([3]; week 1, 20 mg kg^−1): 23 µg/mL | Tmax ([3]; week 1, 20 mg kg^−1): 5 h | t½ ([3]; week 1, 20 mg kg^−1): 38 h | AUC0−t ([3]; week 1, 40 mg kg^−1): 1713 µg·h/mL | Cmax ([3]; week 1, 40 mg kg^−1): 55 µg/mL | Tmax ([3]; week 1, 40 mg kg^−1): 3 h | t½ ([3]; week 1, 40 mg kg^−1): 32 h | AUC0−t ([3]; week 1, 60 mg kg^−1): 2666 µg·h/mL | Cmax ([3]; week 1, 60 mg kg^−1): 79 µg/mL | Tmax ([3]; week 1, 60 mg kg^−1): 5 h | t½ ([3]; week 1, 60 mg kg^−1): 39 h | AUC0−t ([3]; week 2, 20 mg kg^−1): 663 µg·h/mL | Cmax ([3]; week 2, 20 mg kg^−1): 27 µg/mL | Tmax ([3]; week 2, 20 mg kg^−1): 4 h | t½ ([3]; week 2, 20 mg kg^−1): 31 h | AUC0−t ([3]; week 2, 40 mg kg^−1): 1781 µg·h/mL | Cmax ([3]; week 2, 40 mg kg^−1): 71 µg/mL | Tmax ([3]; week 2, 40 mg kg^−1): 4 h | t½ ([3]; week 2, 40 mg kg^−1): 28 h | AUC0−t ([3]; week 2, 60 mg kg^−1): 3056 µg·h/mL | Cmax ([3]; week 2, 60 mg kg^−1): 94 µg/mL | Tmax ([3]; week 2, 60 mg kg^−1): 4 h | t½ ([3]; week 2, 60 mg kg^−1): 35 h | activated partial thromboplastin time ([4]; high doses, toxicology studies, reversible (data not shown)): increased activated partial thromboplastin time | body weight loss in other species ([4]; toxicity studies (data not shown)): did not lead to significant body weight loss | anti-coagulant properties [5]: mild anti-coagulant properties
